# Experimental data published in patent US11654198B2, “Application of combination of polyethylene glycol and local anesthetic in non-narcotic analgesia” (JENKEM TECHNOLOGY CO., LTD. (TIANJIN), priority 2016, dated 2023).
# What was measured:
# [1] = tested on: SD rats; test: Motor block four-level score, bupivacaine dose test (Example 28); assay type: in vivo, rat; set-up: key to motor function score: 1 = normal movement, 4 = complete loss of paw function
# From the text: 1.3 Test substance: bupivacaine injection, diluted with physiological saline to the target concentration; the reference substance is physiological saline.
# After the animals are anesthetized by intraperitoneal injection of 10% chloral hydrate solution, the sciatic nerve is exposed to the biceps and gluteus maximus joints of the hind limbs through surgery, and silicone flexible catheters of the same length (7 cm) are placed around the sciatic nerve. the other ends of the catheters are subcutaneously embedded in the back of the rat, and then sutured and fixed, and 0.2 mL of an antibiotic solution (5,000 U/ml penicillin G) is injected for anti-inflammatory.
# Twenty-four qualified rats (animals with no dyskinesia and pain threshold change after catheterization) are randomly divided into 6 groups, 4 rats in each group, the first group is a control group, the experimental animals are administered with normal saline, and the other groups are administered with different doses of bupivacaine injection. Each group is injected with a corresponding drug through the catheter around the sciatic nerve.
# The exercise condition of each group of rats is evaluated by a motor block four-level scoring method. The scoring criteria are: paws can be dorsiflexed, stretched, valgus and other normal exercises, scored by 1 point; paws can be dorsiflexed, bendable or after the adduction, although the paws can be stretched, the stretching ability is weakened, scored by 2 points; the paws can perform dorsiflexion, but no longer has the ability to stretch, scored by 3 points; the paws completely lose the ability of dorsiflexion, curling and stretching, and the rats produce a gait defect, scored by 4 points. The time point for measuring the motor block score is before administration, and 5 min, 10 min, 30 min, 1 h, and 2 h after administration.
# [2] = tested on: experimental animals; test: Duration of non-anesthetic analgesic effect (statement in background); assay type: in vivo; conditions: single dose
# [3] = PEG-bupivacaine conjugate hydrolysis drug release in pH 7.4 PBS buffer (Example 29); assay type: physicochemical; conditions: 37° C., about 2 mg/mL
# Method: Preparation of isotonic phosphate buffer (0.01 mol/L, pH 7.4, PBS): 8.0 g of NaCl, 0.2 g of KH2PO4, 2.9 g of Na2HPO4.12H2O and 0.2 g of KCl are added sequentially to a quantitative container, and an appropriate amount of distilled water is added to dissolve, and then the volume is adjusted to 1000 mL and the obtained buffer is stored in a refrigerator at 4° C. for use.
# Hydrolysis drug release for the PEG-bupivacaine conjugate: PEG-bupivacaine products (bupivacaine conjugate 6, prepared in Example 9 of the present invention; bupivacaine conjugate 10, prepared in Example 16 of the present invention) are dissolved in PBS buffer at about 2 mg/mL and placed in a water-bathing constant temperature vibrator at 37° C. Samples are taken at 0 h, 6 h, 12 h, 24 h, 48 h, 72 h, 96 h, 120 h and 144 h, and the content of free bupivacaine is determined by HPLC.
molecule,measurement,setting,value
CCCCN1CCCCC1C(=O)Nc1c(C)cccc1C (stereo not drawn) [bupivacaine],motor block effect (summary),[1]; 3 mg/kg (0.66 mg/rat) and 1 mg/kg (0.22 mg/rat),motor block effect
same,motor nerve block effect (summary),"[1]; 0.3, 0.1, 0.03 mg/kg (ie, 0.066, 0.022, 0.0066 mg/rat)",no motor nerve block effect is observed
same,motor function score,"[1]; group 2, 3 mg/kg (0.66 mg/rat) trans-catheter, 0 min (before administration)",1 ± 0
same,motor function score,"[1]; group 2, 3 mg/kg (0.66 mg/rat) trans-catheter, 5 min",1 ± 0
same,motor function score,"[1]; group 2, 3 mg/kg (0.66 mg/rat) trans-catheter, 10 min",1.75 ± 0.5
same,motor function score,"[1]; group 2, 3 mg/kg (0.66 mg/rat) trans-catheter, 30 min",1.75 ± 0.5
same,motor function score,"[1]; group 2, 3 mg/kg (0.66 mg/rat) trans-catheter, 60 min",1.75 ± 0.5
same,motor function score,"[1]; group 2, 3 mg/kg (0.66 mg/rat) trans-catheter, 120 min",1 ± 0
same,motor function score,"[1]; group 3, 1 mg/kg (0.22 mg/rat) trans-catheter, 0 min (before administration)",1 ± 0
same,motor function score,"[1]; group 3, 1 mg/kg (0.22 mg/rat) trans-catheter, 5 min",1.5 ± 0.58
same,motor function score,"[1]; group 3, 1 mg/kg (0.22 mg/rat) trans-catheter, 10 min",1.5 ± 0.58
same,motor function score,"[1]; group 3, 1 mg/kg (0.22 mg/rat) trans-catheter, 30 min",1.25 ± 0.5
same,motor function score,"[1]; group 3, 1 mg/kg (0.22 mg/rat) trans-catheter, 60 min",1 ± 0
same,motor function score,"[1]; group 3, 1 mg/kg (0.22 mg/rat) trans-catheter, 120 min",1 ± 0
same,motor function score,"[1]; group 4, 0.3 mg/kg (0.066 mg/rat) trans-catheter, 0 min (before administration)",1 ± 0
same,motor function score,"[1]; group 4, 0.3 mg/kg (0.066 mg/rat) trans-catheter, 5 min",1 ± 0
same,motor function score,"[1]; group 4, 0.3 mg/kg (0.066 mg/rat) trans-catheter, 10 min",1 ± 0
same,motor function score,"[1]; group 4, 0.3 mg/kg (0.066 mg/rat) trans-catheter, 30 min",1 ± 0
same,motor function score,"[1]; group 4, 0.3 mg/kg (0.066 mg/rat) trans-catheter, 60 min",1 ± 0
same,motor function score,"[1]; group 4, 0.3 mg/kg (0.066 mg/rat) trans-catheter, 120 min",1 ± 0
same,motor function score,"[1]; group 5, 0.1 mg/kg (0.022 mg/rat) trans-catheter, 0 min (before administration)",1 ± 0
same,motor function score,"[1]; group 5, 0.1 mg/kg (0.022 mg/rat) trans-catheter, 5 min",1 ± 0
same,motor function score,"[1]; group 5, 0.1 mg/kg (0.022 mg/rat) trans-catheter, 10 min",1 ± 0
same,motor function score,"[1]; group 5, 0.1 mg/kg (0.022 mg/rat) trans-catheter, 30 min",1 ± 0
same,motor function score,"[1]; group 5, 0.1 mg/kg (0.022 mg/rat) trans-catheter, 60 min",1 ± 0
same,motor function score,"[1]; group 5, 0.1 mg/kg (0.022 mg/rat) trans-catheter, 120 min",1 ± 0
same,motor function score,"[1]; group 6, 0.03 mg/kg (0.0066 mg/rat) trans-catheter, 0 min (before administration)",1 ± 0
same,motor function score,"[1]; group 6, 0.03 mg/kg (0.0066 mg/rat) trans-catheter, 5 min",1 ± 0
same,motor function score,"[1]; group 6, 0.03 mg/kg (0.0066 mg/rat) trans-catheter, 10 min",1 ± 0
same,motor function score,"[1]; group 6, 0.03 mg/kg (0.0066 mg/rat) trans-catheter, 30 min",1 ± 0
same,motor function score,"[1]; group 6, 0.03 mg/kg (0.0066 mg/rat) trans-catheter, 60 min",1 ± 0
same,motor function score,"[1]; group 6, 0.03 mg/kg (0.0066 mg/rat) trans-catheter, 120 min",1 ± 0
same,time the non-anesthetic analgesic effect is maintained,[2],at most 1 hour
"8-Arm-PEG-Bupivacaine, 20K [bupivacaine conjugate 10]",PEG-bupivacaine hydrolysis rate,[3]; 0 h,0.43%
same,PEG-bupivacaine hydrolysis rate,[3]; 6 h,15.03%
same,PEG-bupivacaine hydrolysis rate,[3]; 12 h,25.19%
same,PEG-bupivacaine hydrolysis rate,[3]; 24 h,40.37%
same,PEG-bupivacaine hydrolysis rate,[3]; 48 h,61.72%
same,PEG-bupivacaine hydrolysis rate,[3]; 72 h,76.25%
same,PEG-bupivacaine hydrolysis rate,[3]; 96 h,87.28%
same,PEG-bupivacaine hydrolysis rate,[3]; 120 h,92.76%
same,PEG-bupivacaine hydrolysis rate,[3]; 144 h,96.13%
